ChEMBL document CHEMBL5316344, “Homologation of the Alkyl Side Chain of Antimitotic Phenyl 4-(2-Oxo-3-alkylimidazolidin-1-yl)benzenesulfonate Prodrugs Selectively Targeting CYP1A1-Expressing Breast Cancers Improves Their Stability in Rodent Liver Microsomes” (J Med Chem, 2023)
pIC50, pKi: −log10 of the molar value. The source made the active and inactive calls. The rule behind the calls is not given here.

What was measured:
MCF7 [1] = experiment: Antiproliferative activity against human MCF7 cells expressing CYP1A1 assessed as cell growth inhibition incubated for 48 hrs by sulforhodamine B assay; assay type: functional, cell-based; conditions: MCF7, 48 h
HT-29 = experiment: Antiproliferative activity against human HT-29 cells assessed as cell growth inhibition incubated for 48 hrs by sulforhodamine B assay; assay type: functional, cell-based; conditions: HT-29, 48 h
M21 = experiment: Antiproliferative activity against human M21 cells assessed as cell growth inhibition incubated for 48 hrs by sulforhodamine B assay; assay type: functional, cell-based; conditions: M21, 48 h
[2] = Selectivity ratio, ratio of IC50 for antiproliferative activity against human HT-29 cells to IC50 for antiproliferative activity against human MCF7 cells expressing CYP1A1; assay type: functional
[3] = Selectivity ratio, ratio of IC50 for antiproliferative activity against human M21 cells to IC50 for antiproliferative activity against human MCF7 cells expressing CYP1A1; assay type: functional
[4] = Stability in human liver microsomes assessed as half life incubated for 60 mins by HPLC analysis; assay type: ADME, Microsome
[5] = Stability in mouse liver microsomes assessed as half life incubated for 60 mins by HPLC analysis; assay type: ADME, Microsome
[6] = Stability in rat liver microsomes assessed as half life incubated for 60 mins by HPLC analysis; assay type: ADME, Microsome
[7] = Stability in human liver microsomes assessed as intrinsic clearance incubated for 60 mins by HPLC analysis; assay type: ADME, Microsome; conditions: read-out: CLH
[8] = Stability in mouse liver microsomes assessed as intrinsic clearance incubated for 60 mins by HPLC analysis; assay type: ADME, Microsome; conditions: read-out: CLH
[9] = Stability in rat liver microsomes assessed as intrinsic clearance incubated for 60 mins by HPLC analysis; assay type: ADME, Microsome; conditions: read-out: CLH
Cytochrome P450 1A1 [10] = target: T1, Cytochrome P450 1A1 (Homo sapiens, UniProt P04798); experiment: Binding affinity to human CYP1A1 assessed as inhibition of conversion of 7-ethoicyresorufin into fluorescent resorufin by measuring inhibition constant preincubated for 5 mins followed by […] addition measured every minute for 15 mins by EROD assay; assay type: ADME
T1 sequence (P04798 whole entry): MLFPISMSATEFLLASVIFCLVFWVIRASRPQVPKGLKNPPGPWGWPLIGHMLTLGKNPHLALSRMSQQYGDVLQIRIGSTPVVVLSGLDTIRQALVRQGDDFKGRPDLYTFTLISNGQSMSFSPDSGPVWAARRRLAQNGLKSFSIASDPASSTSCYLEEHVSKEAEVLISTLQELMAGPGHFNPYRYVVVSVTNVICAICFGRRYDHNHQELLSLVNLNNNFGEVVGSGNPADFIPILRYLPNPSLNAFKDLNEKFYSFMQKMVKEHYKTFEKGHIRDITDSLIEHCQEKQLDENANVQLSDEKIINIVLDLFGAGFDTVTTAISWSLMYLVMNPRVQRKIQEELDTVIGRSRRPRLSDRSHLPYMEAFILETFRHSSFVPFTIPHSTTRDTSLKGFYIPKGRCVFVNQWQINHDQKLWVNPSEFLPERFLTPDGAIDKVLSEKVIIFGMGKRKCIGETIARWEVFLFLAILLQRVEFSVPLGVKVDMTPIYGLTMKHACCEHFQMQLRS

HT-1080 [11] = experiment: Antiproliferative activity against human HT-1080 cells expressing CYP1A1 assessed as cell growth inhibition incubated for 48 hrs by sulforhodamine B assay; assay type: functional, cell-based; conditions: HT-1080, 48 h
HT-1080 [12] = experiment: Antiproliferative activity against human HT-1080 cells transfected with empty vector assessed as cell growth inhibition incubated for 48 hrs by sulforhodamine B assay; assay type: functional, cell-based; conditions: HT-1080, 48 h
HT-1080 [13] = experiment: Antiproliferative activity against human HT-1080 cells assessed as cell growth inhibition incubated for 48 hrs by sulforhodamine B assay; assay type: functional, cell-based; conditions: HT-1080, 48 h
[14] = Selectivity ratio, ratio of IC50 for antiproliferative activity against human HT-1080 cells transfected with empty vector to IC50 for antiproliferative activity against human HT-1080 cells expressing CYP1A1; assay type: functional
[15] = Selectivity ratio, ratio of IC50 for antiproliferative activity against human HT-1080 cells to IC50 for antiproliferative activity against human HT-1080 cells expressing CYP1A1; assay type: functional
MDA-MB-231 = experiment: Antiproliferative activity against ER/PR/HER2-negative human MDA-MB-231 cells assessed as cell growth inhibition incubated for 72 hrs by sulforhodamine B assay; assay type: functional, cell-based; conditions: MDA-MB-231, 72 h
MDA-MB-468 = experiment: Antiproliferative activity against ER/PR/HER2-negative human MDA-MB-468 cells assessed as cell growth inhibition incubated for 72 hrs by sulforhodamine B assay; assay type: functional, cell-based; conditions: MDA-MB-468, 72 h
T47D = experiment: Antiproliferative activity against ER/PR-positive HER2-negative human T47D cells assessed as cell growth inhibition incubated for 72 hrs by sulforhodamine B assay; assay type: functional, cell-based
SK-BR-3 = experiment: Antiproliferative activity against ER/PR-negative HER2-positive human SK-BR-3 cells assessed as cell growth inhibition incubated for 72 hrs by sulforhodamine B assay; assay type: functional, cell-based; conditions: SK-BR-3, 72 h
MCF7 [16] = experiment: Antiproliferative activity against […] human MCF7 cells assessed as cell growth inhibition incubated for 72 hrs by sulforhodamine B assay; assay type: functional, cell-based; conditions: MCF7, 72 h
[17] = Selectivity ratio, ratio of IC50 for antiproliferative activity against ER/PR/HER2-negative human MDA-MB-231 cells to IC50 for antiproliferative activity against ER/PR/HER2-negative human MDA-MB-468 cells; assay type: functional
[18] = Selectivity ratio, ratio of IC50 for antiproliferative activity against ER/PR/HER2-negative human MDA-MB-231 cells to IC50 for antiproliferative activity against ER/PR-positive HER2-negative human T47D cells; assay type: functional
[19] = Selectivity ratio, ratio of IC50 for antiproliferative activity against ER/PR/HER2-negative human MDA-MB-231 cells to IC50 for antiproliferative activity against ER/PR-negative HER2-positive human SK-BR-3 cells; assay type: functional
[20] = Selectivity ratio, ratio of IC50 for antiproliferative activity against ER/PR/HER2-negative human MDA-MB-231 cells to IC50 for antiproliferative activity against […] human MCF7 cells; assay type: functional
MCF7 [21] = experiment: Induction of cell cycle arrest in human MCF7 cells expressing CYP1A1 assessed as accumulation of cells at G2/M phase at 1250 nM incubated for 48 hrs by DAPI staining based flow cytometric analysis (reference value: 16+/-2 %); assay type: functional
MCF7 [22] = experiment: Induction of cell cycle arrest in human MCF7 cells expressing CYP1A1 assessed as accumulation of cells at S phase at 1250 nM incubated for 48 hrs by DAPI staining based flow cytometric analysis (reference value: 11+/-1 %); assay type: functional
MCF7 [23] = experiment: Induction of cell cycle arrest in human MCF7 cells expressing CYP1A1 assessed as accumulation of cells at G0/G1 phase at 1250 nM incubated for 48 hrs by DAPI staining based flow cytometric analysis (reference value: 74+/-2 %); assay type: functional
Tubulin (Homo sapiens) = Tubulin (Homo sapiens) (UniProt P68371+Q9H4B7+P0DPH7+P68366+Q13509+Q71U36+P04350+Q3ZCM7+P07437+P68363+Q9BQE3+Q6PEY2+Q13885+Q9BVA1+Q9BUF5); experiment: Disruption of microtubules in human MCF7 cells expressing CYP1A1 assessed as cytoskeleton disruption at 1250 nM measured after 48 hrs by DAPI staining based fluorescence microscopic analysis; assay type: cell-based
HT-1080 [24] = experiment: Antitumor activity against human HT-1080 cells xenografted in chick embryo assessed as reduction in tumor wet weight at 1 ug, iv incubated for 17 days by CAM assay; assay type: functional; design: scale not given: the % may be the effect or the level left; conditions: dose 1 µg, time 17 day
HT-1080 [25] = experiment: Antitumor activity against human HT-1080 cells transfected with empty vector xenografted in chick embryo assessed as reduction in tumor wet weight at 1 ug, iv incubated for 17 days by CAM assay; assay type: functional; design: scale not given: the % may be the effect or the level left; conditions: dose 1 µg, time 17 day
HT-1080 [26] = experiment: Antitumor activity against human HT-1080 cells expressing CYP1A1 xenografted in chick embryo assessed as reduction in tumor wet weight at 1 ug, iv incubated for 17 days by CAM assay; assay type: functional; design: scale not given: the % may be the effect or the level left; conditions: dose 1 µg, time 17 day
[27] = Toxicity in chick embryo xenografted with human […] cells assessed as mortality at 1 ug, iv incubated for 17 days; assay type: organism-based, Gallus gallus; conditions: chicken, in vivo, 408 h, dose 1 µg, time 17 day
[28] = Toxicity in chick embryo xenografted with human […] cells transfected with empty vector assessed as mortality at 1 ug, iv incubated for 17 days; assay type: organism-based, Gallus gallus; conditions: chicken, in vivo, 408 h, dose 1 µg, time 17 day
[29] = Toxicity in chick embryo xenografted with human […] cells expressing CYP1A1 assessed as mortality at 1 ug, iv incubated for 17 days; assay type: organism-based, Gallus gallus; conditions: chicken, in vivo, 408 h, dose 1 µg, time 17 day
Cytochrome P450 1A1 [30] = target: T1, Cytochrome P450 1A1; experiment: Prodrug conversion assessed as human CYP1A1-mediated CEU-699 formation incubated for 15 mins in presence of NADPH by HPLC analysis; assay type: ADME; conditions: recombinant enzyme, 0.25 h
MCF7 [31] = experiment: Induction of cell cycle arrest in human MCF7 cells expressing CYP1A1 assessed as accumulation of cells at G2/M phase at 15 nM incubated for 48 hrs by DAPI staining based flow cytometric analysis (reference value: 16+/-2 %); assay type: functional
MCF7 [32] = experiment: Induction of cell cycle arrest in human MCF7 cells expressing CYP1A1 assessed as accumulation of cells at S phase at 15 nM incubated for 48 hrs by DAPI staining based flow cytometric analysis (reference value: 11+/-1 %); assay type: functional
MCF7 [33] = experiment: Induction of cell cycle arrest in human MCF7 cells expressing CYP1A1 assessed as accumulation of cells at G0/G1 phase at 15 nM incubated for 48 hrs by DAPI staining based flow cytometric analysis (reference value: 74+/-2 %); assay type: functional

CCCCCN1CCN(c2ccc(S(=O)(=O)Oc3cc(OC)cc(OC)c3)cc2)C1=O
pIC50 (MCF7 [1]): 6.22 | pIC50 (HT-29): < 4.90 | pIC50 (M21): < 4.90 | Ratio IC50 [2]: >21 | Ratio IC50 [3]: >21 | half-life [4]: 1.17 h | half-life [5]: 0.733 h | half-life [6]: 1.78 h | microsomal CLint [7]: 20 µL/min/mg | microsomal CLint [8]: 32 µL/min/mg | microsomal CLint [9]: 13 µL/min/mg | pKi (Cytochrome P450 1A1 [10]): 6.64 | pIC50 (HT-1080 [11]): 6.30 | pIC50 (HT-1080 [12]): 5.06 | pIC50 (HT-1080 [13]): 5.17 | Ratio IC50 [14]: 18 | Ratio IC50 [15]: 14 | pIC50 (MDA-MB-231): < 4.90 | pIC50 (MDA-MB-468): 6.68 | pIC50 (T47D): 5.96 | pIC50 (SK-BR-3): 7.10 | pIC50 (MCF7 [16]): 7.37 | Ratio IC50 [17]: >60 | Ratio IC50 [18]: >11 | Ratio IC50 [19]: >160 | Ratio IC50 [20]: >290 | Activity (MCF7 [21]): 57% | Activity (MCF7 [22]): 11% | Activity (MCF7 [23]): 32% | Activity (Tubulin (Homo sapiens)): Active | Activity (HT-1080 [24]): 86% | Activity (HT-1080 [25]): 87% | Activity (HT-1080 [26]): 71% | Activity [27]: Non-Toxic | Activity [28]: Non-Toxic | Activity [29]: Non-Toxic | Drug metabolism (Cytochrome P450 1A1 [30]): Metabolite_Detected

COc1ccc(/C=C\c2cc(OC)c(OC)c(OC)c2)cc1O [COMBRETASTATIN A4]
pIC50 (MCF7 [1]): 8.05 | pIC50 (HT-29): 8.22 | pIC50 (M21): 9.40 | Ratio IC50 [2]: 0.66 | Ratio IC50 [3]: 0.044 | pIC50 (HT-1080 [11]): 8.68 | pIC50 (HT-1080 [12]): 8.89 | pIC50 (HT-1080 [13]): 8.22 | Ratio IC50 [14]: 0.62 | Ratio IC50 [15]: 2.9 | Activity (MCF7 [31]): 72% | Activity (MCF7 [32]): 8% | Activity (MCF7 [33]): 20.1%
